Source: publication PMC10427391, “Identification of Cytochrome P450 2E1 as a Novel Target in Glioma and Development of Its Inhibitor as an Anti‐Tumor Agent” (Advanced Science, 2023)

Legend:
GL261 cells [1] = assay: Proliferation of glioma cells in indirect co-culture with microglia/macrophages, GL261; conditions: co-cultured with primary microglia, RAW 264.7 or THP-1 macrophages
[2] = tested on: glioma induced by GL261 cells; assay: Intracranial orthotopic glioma model induced by GL261 cells; conditions: C57BL/6 mouse
primary microglia = assay: Primary microglia induced by IL-4 and IL-13: polarization markers and signaling (western blot, immunofluorescence)
Experimental: Tissues and cells were harvested and lysed with RIPA buffer. The protein concentration was determined using a BCA kit. Samples were separated on 10% SDS‐PAGE gels and blotted onto nitrocellulose membranes (Millipore).The membranes were incubated with primary antibodies at 4 °C overnight, washed three times with TBST, and then incubated with HRP‐conjugated anti‐mouse IgG or anti‐rabbit IgG diluted in TBST containing 1% non‐fat milk at room temperature for 1 h. After final washing with TBST, the membranes were developed by using ECL.

CYP2E1 [3] = biological target: T1, CYP2E1 (Homo sapiens, UniProt P05181); assay: In vitro inhibition of CYP2E1 (chlorzoxazone as substrate); format: biochemical; parameters: A 100 µL microsomal incubation system; from tissue
Experimental: Chlorzoxazone with a concentration of 62.5 µM and inhibitors with different gradient concentrations were selected to plot the inhibition of chlorzoxazone and to calculate the IC50 of the inhibitor. A Lineweaver–Burk curve was used to determine the mechanism and calculate the K i of inhibitors of CYP2E1.
A 100 µL microsomal incubation system^[ [44] ^] contained probe drugs for each CYP with different series of concentrations, Q11, phosphate buffer, EDTA, magnesium chloride, and substrates (phenacetin for CYP1A2, coumarin for CYP2A6, bupropion for CYP2B6, paclitaxel for CYP2C8, tolbutamide for CYP2C9, omeprazole for CYP2C19, dextromethorphan for CYP2D6, chlorzoxazone for CYP2E1, midazolam for CYP3A4/5). HPLC‐UV and HPLC‐FLD were used to measure the number of metabolites.
Target sequence in this assay (P05181 whole entry): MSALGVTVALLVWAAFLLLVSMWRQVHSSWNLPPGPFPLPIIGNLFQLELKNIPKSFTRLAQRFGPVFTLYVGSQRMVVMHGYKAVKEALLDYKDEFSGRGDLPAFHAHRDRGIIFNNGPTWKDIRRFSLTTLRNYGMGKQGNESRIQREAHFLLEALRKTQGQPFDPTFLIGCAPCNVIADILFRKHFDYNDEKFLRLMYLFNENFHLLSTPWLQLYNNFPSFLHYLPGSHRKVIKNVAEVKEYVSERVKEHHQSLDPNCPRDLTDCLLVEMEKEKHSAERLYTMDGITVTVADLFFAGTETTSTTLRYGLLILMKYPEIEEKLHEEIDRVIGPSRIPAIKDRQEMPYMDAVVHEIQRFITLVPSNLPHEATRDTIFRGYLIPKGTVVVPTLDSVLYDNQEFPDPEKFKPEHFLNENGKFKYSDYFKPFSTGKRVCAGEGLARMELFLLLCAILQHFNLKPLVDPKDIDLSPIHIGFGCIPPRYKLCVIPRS

U251 cells [4] = assay: Proliferation of glioma cells in indirect co-culture with microglia/macrophages, U251; conditions: co-cultured with primary microglia, RAW 264.7 or THP-1 macrophages
intracerebral glioma = assay: Kaplan–Meier survival of mice with intracerebral glioma; conditions: Q11 30 mg kg^−1 vs saline, P log-rank = 0.0017
HMC‐3 cells = assay: HMC-3 cells transfected with CYP2E1 plasmids: PPAR-γ and cytokines; conditions: HMC-3 transfected with CYP2E1 plasmids
U251 cells [5] = assay: Direct effect on glioma cells (CCK-8), U251; conditions: concentrations below 100 µM
[6] = Long-term Q11 treatment, safety, rats; conditions: 12 weeks
[7] = Central inhibitory effect; conditions: clomethiazole: at a dose that inhibited CYP2E1
U251 cells [8] = assay: U251 glioma cells with conditioned medium of CYP2E1-overexpressing HMC-3 cells (proliferation, migration, apoptosis)
GL261 cells [9] = assay: Apoptosis (Annexin V-FITC/PI) of GL261 cells in co-culture with microglia/macrophages
[10] = Bioavailability and pharmacokinetics of Q11 in rats; format: in vivo, SD rats
Experimental: Eight healthy male SD rats were randomly divided into 2 groups (4 rats in each group) using a double‐period self‐cross control principle. The first group was given Q11 (30 mg kg^−1, i.g), and the second group was given Q11 (30 mg kg^−1, i.v.). One week later, a second round of experiments was conducted in which Q11 (30 mg kg^−1, i.v.) was given to the first group of rats and Q11 (30 mg kg^−1, i.g) was given to the second group. Collection of orbital blood was carried out at 0, 2, 7, 15, 30 min and 1, 2, 4, 6, 9, 12, 24 h after Q11 administration.
Thirty healthy male SD rats were randomly divided into three equal groups. Q11 was administrated at 6, 30, or 150 mg kg^−1 (i.g) to these three groups. Collection of orbital blood was carried out at 0, 2, 7, 15, 30 min and 1, 2, 4, 6, 9, 12, 24, 36 h after Q11 administration.

CYP2E1 [11] = biological target: T2, CYP2E1 (Rattus norvegicus, UniProt P05182); assay: In vivo inhibition of CYP2E1 activity by metabolism of diethylnitrosamine (DEN), self-controlled cross-administration; parameters: species or system rats; conditions: DEN 50 mg kg^−1 i.p.
T2 construct: from tissue; host or cells: living rats (whole animal, endogenous enzyme)
T2 sequence (P05182 whole entry): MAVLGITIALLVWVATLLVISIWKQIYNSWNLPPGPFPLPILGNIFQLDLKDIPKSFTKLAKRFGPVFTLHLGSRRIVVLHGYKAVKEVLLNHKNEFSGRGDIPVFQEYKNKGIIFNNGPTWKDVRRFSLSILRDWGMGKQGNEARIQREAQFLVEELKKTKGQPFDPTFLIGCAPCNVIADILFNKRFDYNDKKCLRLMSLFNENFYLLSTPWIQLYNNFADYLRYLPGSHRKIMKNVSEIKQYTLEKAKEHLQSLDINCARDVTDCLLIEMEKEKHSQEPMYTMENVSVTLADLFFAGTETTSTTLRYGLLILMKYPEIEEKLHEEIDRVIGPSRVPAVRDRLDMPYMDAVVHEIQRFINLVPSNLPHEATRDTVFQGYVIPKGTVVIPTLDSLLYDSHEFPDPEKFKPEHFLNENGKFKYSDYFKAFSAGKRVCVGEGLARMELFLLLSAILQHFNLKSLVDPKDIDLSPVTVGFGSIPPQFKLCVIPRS
Experimental: A self‐controlled cross‐administration experiment was designed based on previous report.^[ [45] ^] In the first round of the experiment, a single intraperitoneal injection of diethylnitrosamine at 50 mg kg^−1 was given in the first week. After a 1‐week interval, the second round of the experiment was conducted, where each rat was given Q11 at 6, 30, or 150 mg kg^−1 (i.g), and then, after 5 min, an intraperitoneal injection of diethylnitrosamine at 50 mg kg^−1 was given. Collection of orbital blood was carried out at 2, 7, 15, 30 min and 1, 2, 4, 6, 9, 12, 24, 36, 48, 60 h.

[12] = Long-term Q11 treatment, safety, mice; conditions: 26 weeks
CYP2E1 [13] = biological target: T1, CYP2E1; assay: Surface plasmon resonance binding of Q11 to CYP2E1 (Biacore 8k); parameters: purchased Cloud-Clone Corp. Wuhan
Experimental: Surface Plasma Resonance (SPR) experiments^[ [43] ^] were carried out using the Biacore system (Biacore 8k, Cytiva). Recombinant CYP2E1 protein was purified by Cloud‐Clone Corp. Wuhan. Running buffer contained PBS (2 mM KH2PO4, 10 mM Na2HPO4, 137 mM NaCl, 2.7 mM KCl) with 0.005% Tween‐20, pH 7.4. CYP2E1 protein was diluted to 25 µg mL^−1 in immobilization buffer and bound to a CM5 chip at about 2000RU. Immobilization buffer contained 10 mM sodium acetate, pH 4.0. Samples of compound Q11 were diluted in running buffer with 125, 62.5, 31.25, 15.625, 7.8, 3.9, 1.95 µM and injected at 30 µL min^−1 for 60 s contact time followed by dissociation for 120 s. The data was fitted with Biacore Insight Evaluation software (Version 2.0).
Target sequence in this assay (P05181 whole entry, species assumed): as the sequence (P05181 whole entry) above

GL261 cells [14] = assay: Cell cycle of GL261 cells in co-culture with primary microglia
[15] = IL-4 and IL-13 10 ng mL^−1, 24 h
[16] = Q11 medium- and high-dose groups vs IL-4/IL-13 group

## CC(=O)c1scnc1C [Compound Q11, 1‐(4‐methyl‐5‐thialzolyl) ethanone]
GL261 cells [1]
  proliferation of GL261 cells in co-culture: significantly inhibited
[2]
  growth of glioma (brain weight, tumor diameter, volumes): significantly inhibited
Primary microglia; [15]
  Arg-1 (M2 marker) expression: significantly reduced
  iNOS (M1 marker) expression: increased
Primary microglia; [16]
  p-STAT-1 and p-NF-κB: significantly increased
  p-STAT-3 and p-STAT-6: significantly decreased
Primary microglia; after induction by IL-4 and IL-13
  PPAR-γ expression: significantly inhibited
CYP2E1 [3]
  IC50: 1.64 µM
  Ki: 0.897 µM
CYP2E1 [3]; Lineweaver–Burk plot
  type of inhibition of CYP2E1: competitive‐noncompetitive mixed‐type inhibitor
U251 cells [4]
  proliferation of U251 cells in co-culture: significantly inhibited
Intracerebral glioma
  mean survival time: 32 days
HMC‐3 cells
  changes caused by CYP2E1 overexpression (PPAR-γ, IL-4, IL-10, TGFβ up; IL-1α, IL-1β down): significantly blocked the changes
U251 cells [5]
  direct killing of U251 cells: did not directly kill
[6]
  adverse reactions on long-term treatment: no adverse reactions
[7]
  central inhibitory effect: does not show a central inhibitory effect
U251 cells [8]
  tumor-promoting effects of upregulating CYP2E1 in HMC-3 (proliferation, migration, apoptosis of U251): reversed
GL261 cells [9]
  apoptosis of GL261 cells: promoted apoptosis
[10]; male, SD, rat, blood, 30 mg kg^−1, oral administration, read-out: mean T max
  Tmax: 0.45 h
[10]; male, SD, rat, blood, 30 mg kg^−1, oral administration, read-out: mean t 1/2 (converted)
  half-life: 3.05 h
[10]; male, SD, rat, blood, oral vs intravenous, 30 mg kg^−1
  bioavailability: 94.7%
[10]; oral, dose 6 to 150 mg kg^−1
  dose dependence of pharmacokinetic parameters: proportional changes
CYP2E1 [11]; Q11 6 mg kg^−1 i.g.
  inhibition ratio in terms of clearance (CL) of diethylnitrosamine (DEN): 63.98%
CYP2E1 [11]; Q11 30 mg kg^−1 i.g.
  inhibition ratio in terms of clearance (CL) of diethylnitrosamine (DEN): 79.63%
CYP2E1 [11]; Q11 150 mg kg^−1 i.g.
  inhibition ratio in terms of clearance (CL) of diethylnitrosamine (DEN): 85.42%
[12]
  adverse reactions on long-term treatment: no adverse reactions
CYP2E1 [13]
  Kd: 7 µM
GL261 cells [14]
  cell cycle of GL261 cells: arrested the cell cycle in S phase
